Measured values: ChEMBL document CHEMBL1130908, “Diastereoselective two-directional synthesis and cation transport ability of the central tristetrahydrofuranyl unit of meso polyether glabrescol as naturally occurring podand” (Bioorg Med Chem Lett, 1998)
In brackets after ≈: the same amount, converted by molar mass.

Experiment: Compound was evaluated for cytotoxic activity against KB cells.
Assay type: functional, cell-based
Conditions: Homo sapiens

SMILES	IC50 [µg/mL]
CC(=O)O[C@@H](CC[C@@H](O)[C@]1(C)CC[C@H]([C@@](C)(O)CCC=C(C)C)O1)[C@@]1(C)CC[C@H]([C@@](C)(O)CCC=C(C)C)O1	0.52 (≈ 0.941 µM)
CC(=O)O[C@@H](CC[C@@H](OC(C)=O)[C@]1(C)CC[C@H]([C@@](C)(O)CCC=C(C)C)O1)[C@@]1(C)CC[C@H]([C@@](C)(O)CCC=C(C)C)O1	> 100
CC(C)(O)/C=C/C[C@](C)(O)[C@H]1CC[C@@](C)([C@H]2CC[C@H]([C@]3(C)CC[C@H]([C@@](C)(O)C/C=C/C(C)(C)OO)O3)O2)O1	5.3 (≈ 9.8 µM)
CC(C)=CCC[C@](C)(O)[C@H]1CC[C@](C)([C@@H]2CC[C@H]([C@]3(C)CC[C@@H]([C@](C)(O)CCC=C(C)C)O3)O2)O1	7 (≈ 14.2 µM)
